According to patent US7723307B2, “Amino acid derivatives and pharmaceutical uses thereof” (Aston University, priority 2003, dated 2010):

What was measured:
TGase [1] = experiment: 14C-putrescine incorporation into N,N'-dimethyl casein in kidney homogenates of treated SNx rats; assay type: in vivo, rat; conditions: day 84
Source text: (§1) Male Wistar rat of approximately 300 g weight was anaesthetised using 5% halothane and maintained at 3% for the duration of the surgical procedure. The rat was subjected to a ⅚th subtotal nephrectomy (SNx) by ligation of the left renal artery and vein followed by complete nephrectomy of the left kidney. The right kidney had both the upper and lower poles ligated followed by excision of both poles. A 9-cm cannula (0.32 mm bore) was sealed on one end and fenestrated between 3 and 12 mm from the sealed end. This was then inserted through the parenchyma (cut to cut/pole to pole) of the kidney so that the blunt end was just visible through one of the cut ends. This was then sealed in position using tissue glue on both ends of the kidney such that the fenestrated area was within the remnant kidney. The cannula was passed through the muscle wall, which was then stitched using reabsorbable sutures. The cannula was then attached to the regulator of a 2 ml osmotic minipump (Azlet osmotic minipump (2 ml4), Charles Rivers, UK) that was loaded (primed for 15 hrs at RT) with either PBS (SNx) or TGase inhibitor 281 or 283 (SNx+281 and SNx+283, respectively) at a concentration of 50 mM (delivery 1.5 μl per hour). The pump was then positioned subcutaneously on the right upper flank of the animal and the skin sutured. […]

SNx rats = experiment: Renal function in subtotal nephrectomy (SNx) rats with inhibitor instilled into the kidney by osmotic minipump; assay type: in vivo, rat; conditions: 90 day SNx rats, inhibitor 50 mM instilled into kidney, 5 animals per group
Source text: Male Wistar rat of approximately 300 g weight was anaesthetised using 5% halothane and maintained at 3% for the duration of the surgical procedure. The rat was subjected to a ⅚th subtotal nephrectomy (SNx) by ligation of the left renal artery and vein followed by complete nephrectomy of the left kidney. The right kidney had both the upper and lower poles ligated followed by excision of both poles. A 9-cm cannula (0.32 mm bore) was sealed on one end and fenestrated between 3 and 12 mm from the sealed end. This was then inserted through the parenchyma (cut to cut/pole to pole) of the kidney so that the blunt end was just visible through one of the cut ends. This was then sealed in position using tissue glue on both ends of the kidney such that the fenestrated area was within the remnant kidney. The cannula was passed through the muscle wall, which was then stitched using reabsorbable sutures. The cannula was then attached to the regulator of a 2 ml osmotic minipump (Azlet osmotic minipump (2 ml4), Charles Rivers, UK) that was loaded (primed for 15 hrs at RT) with either PBS (SNx) or TGase inhibitor 281 or 283 (SNx+281 and SNx+283, respectively) at a concentration of 50 mM (delivery 1.5 μl per hour). The pump was then positioned subcutaneously on the right upper flank of the animal and the skin sutured. The animal was then switched onto oxygen and allowed to partially regain consciousness before being returned to the cage. The pump was changed every 28 days under halothane anaesthesia. […] The animal was then anaesthetised, the remnant kidney recovered and a terminal blood sample collected.
Proteinuria, creatinine clearance, serum clearance, urine creatinine and urine urea were carried out by standard clinical chemistry techniques (Johnson et al., 1997, J. Clin. Invest. 99:2950-2960). Creatinine and urea were measured by the standard autoanalyser technique and proteinura by the Biuret method (Johnson et al., supra). Data represent mean values ±SE, taken from 5 animals per group.

TGase [2] = experiment: In situ TGase activity in kidney cryostat sections of treated SNx rats; assay type: in vivo, rat; conditions: SNx rats treated for 28 days, biotin cadaverine incorporation
Source text: as §1, with “sutures.” for “sutures. The cannula was then attached to the regulator of a 2 ml osmotic minipump (Azlet osmotic minipump (2 ml4), Charles Rivers, UK) that was loaded (primed for 15 hrs at RT) with either PBS (SNx) or TGase inhibitor 281 or 283 (SNx+281 and SNx+283, respectively) at a concentration of 50 mM (delivery 1.5 μl per hour). The pump was then positioned subcutaneously on the right upper flank of the animal and the skin sutured.”
Rat kidneys treated in vivo with TGase inhibitors were snap-frozen in liquid nitrogen and 14 μm sections were cut using a cryostat and allowed to air-dry. […] Slides were viewed on a Leica TCSNT confocal microscope equipped with excitation and emission filters for Cy5, and emitted fluorescence was quantified with the software supplied by the manufacturer. […]

tissue transglutaminase = biological target: T1, tissue transglutaminase (UniProt P08587); experiment: TGase-mediated crosslinking of fibronectin, SDS-PAGE; assay type: biochemical; conditions: compound 250 μM, TGase and fibronectin 50 μg/ml each, 37° C. for 2 hr
T1 sequence (P08587 1-690): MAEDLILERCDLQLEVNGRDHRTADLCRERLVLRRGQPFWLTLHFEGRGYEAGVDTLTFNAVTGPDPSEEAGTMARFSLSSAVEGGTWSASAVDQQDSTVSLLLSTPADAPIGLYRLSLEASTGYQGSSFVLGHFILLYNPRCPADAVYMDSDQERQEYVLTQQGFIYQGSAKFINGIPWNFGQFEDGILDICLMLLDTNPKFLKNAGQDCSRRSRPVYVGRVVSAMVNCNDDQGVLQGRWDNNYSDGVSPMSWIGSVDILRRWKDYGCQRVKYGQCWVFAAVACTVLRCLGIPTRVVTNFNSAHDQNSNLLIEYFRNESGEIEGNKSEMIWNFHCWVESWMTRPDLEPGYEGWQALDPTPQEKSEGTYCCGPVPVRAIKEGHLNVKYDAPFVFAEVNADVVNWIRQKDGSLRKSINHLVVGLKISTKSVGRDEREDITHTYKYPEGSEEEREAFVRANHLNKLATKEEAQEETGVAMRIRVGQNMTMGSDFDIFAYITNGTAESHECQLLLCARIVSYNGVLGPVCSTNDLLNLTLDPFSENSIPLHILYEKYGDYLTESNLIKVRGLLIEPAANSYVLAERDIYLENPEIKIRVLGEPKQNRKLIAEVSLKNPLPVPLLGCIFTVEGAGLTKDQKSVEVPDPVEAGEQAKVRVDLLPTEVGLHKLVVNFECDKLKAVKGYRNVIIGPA
Description: • 1. Preactivate TGase in 3 mM DTT (where applicable) on ice for 1 hr. • 2. Crosslink TGase with fibronectin in 40 mM Tris/100 mM NaCl at 50 μg/ml final concentration each, according to Table 1 below. Include non-activated Tgase/preactivated Tgase controls in the presence and absence of the inhibitors to investigate potential homodimer formation. • 3. Incubate at 37° C. for 2 hr to allow crosslink formation to take place. • 4. Solubilise crosslink in 2× Laemmli buffer. Vortex and spin down insoluble material. • 5. Load 20 μg of total protein (Tgase+Fn) on a 7% acrylamide SDS PAGE gel. Run gel at […] until dye escapes from the bottom of the gel. • 6. Stain with coomassie brilliant blue for 1 hr at RT. • 7. De-stain in 30% methanol/10% acetic acid at RT.
SDS-PAGE data showing tTGase-mediated crosslinking of fibronectin following treatment with exemplary compounds of the invention is shown in FIG. 22.

Row | SMILES | TGase activity by 14C-putrescine incorporation in kidney homogenates (FIG. 25b) (TGase [1]) | Proteinuria, Mean (SNx rats) | Serum creatinine, Mean (SNx rats) | Serum urea, Mean (SNx rats) | Urine creatinine, Mean (SNx rats) | Urine urea, Mean (SNx rats) | In situ TGase activity in kidney cryostat sections (FIG. 25a) (TGase [2]) | tTGase-mediated crosslinking of fibronectin (FIG. 22) (tissue transglutaminase)
1 | CC(=O)CSc1n(C)cc[n+]1C.[Cl-] [Compound 283, 1,3-dimethyl-2-(2-oxopropylsulfanyl)-3H-1,3-diazol-1-ium-chloride, reference compound] | inhibition | 835 mg/24 h | 114 µM | 16.3 mM/L | 3140 µM | 272 mM/L | inhibition | 
2 | C[S+](C)CC(=O)CCC(NC(=O)C(CCC(N)=O)NC(=O)OCc1ccccc1)C(=O)O [Compound 285, N-Benzyloxycarbonyl-L-glutaminyl-6-dimethylsulfonium-5-oxo-L-norleucine] |  |  |  |  |  |  |  | inhibition
3 | C[S+](C)CC(=O)CCC(NC(=O)C(Cc1ccccc1)NC(=O)OCc1ccccc1)C(=O)O [Compound 281, N-Benzyloxycarbonyl-L-phenylalanyl-6-dimethylsulfonium-5-oxo-L-norleucine] | inhibition | 503 mg/24 h | 208 µM | 22.32 mM/L | 4000 µM | 372 mM/L | inhibition | inhibition
